Laboratory results as given in article PMC2819846 (Mutation research, 2008).
Like-named read-outs stand apart in the source and are kept apart here.

How the values were obtained:
strain TA100 = assay type: cell-based, Salmonella; conditions: TA100 liquid-suspension; for Rev/10^6 survivors: DMSO 0.8; for Percent survival: DMSO 100
Salmonella TA98 = experiment: Salmonella plate-incorporation mutagenicity assay, strain TA98, with S9 mix; assay type: cell-based
[1] = system: DNA from Salmonella TA100; experiment: Abasic sites by aldehydic-site assay in DNA of treated TA100; assay type: cell-based; conditions: DMSO 5.9 ± 0.33
[2] = system: DNA from Salmonella TA100; experiment: Stable DNA adducts by 32P-postlabeling in DNA of treated TA100; assay type: cell-based; conditions: DMSO 0.024 ± 0.000
Salmonella TA100 = experiment: Salmonella plate-incorporation mutagenicity assay, strain TA100; assay type: cell-based
Salmonella TA104 = experiment: Salmonella plate-incorporation mutagenicity assay, strain TA104, with S9 mix; assay type: cell-based

With `O[C@@H]1C=Cc2c(ccc3ccc4sccc4c23)[C@H]1O` (racemic) [P[3,4-b]T 8,9-diol, (±)-trans-8,9-Dihydrophenanthro[3,4-b]thiophene 8,9-diol] the “Fold increase in mutant frequency relative to DMSO-treated cells” value (strain TA100; 2 µg/ml) was 2.5 fold, the “Rev/10^6 survivors” value (strain TA100; 2 µg/ml) was 2.0 Rev/10^6 survivors and the Percent survival (strain TA100; 2 µg/ml) was 91%. For the same compound, the “Fold increase in mutant frequency relative to DMSO-treated cells” value (strain TA100; 5 µg/ml) was 2.8 fold, the “Rev/10^6 survivors” value (strain TA100; 5 µg/ml) was 2.2 Rev/10^6 survivors and the Percent survival (strain TA100; 5 µg/ml) was 63%. For the same compound, the Rev/plate (Salmonella TA98; TA98 +S9, Test 1, 2 µg/plate, zero-dose 33/40/39) was 61 rev/plate, the Rev/plate (Salmonella TA98; TA98 +S9, Test 1, 5 µg/plate, zero-dose 33/40/39) was 87 rev/plate and the Rev/plate (Salmonella TA98; TA98 +S9, Test 1, 10 µg/plate, zero-dose 33/40/39) was 94 rev/plate. For the same compound, the Rev/plate (Salmonella TA98; TA98 +S9, Test 1, 20 µg/plate, zero-dose 33/40/39) was 156 rev/plate, the Rev/plate (Salmonella TA98; TA98 +S9, Test 1, 40 µg/plate, zero-dose 33/40/39) was 285 rev/plate and the Rev/plate (Salmonella TA98; TA98 +S9, Test 1, 80 µg/plate, zero-dose 33/40/39) was 412 rev/plate. The Rev/plate (Salmonella TA98; TA98 +S9, Test 2, 10 µg/plate, zero-dose 43/41/30) was 104/110, the Rev/plate (Salmonella TA98; TA98 +S9, Test 2, 20 µg/plate, zero-dose 43/41/30) was 124/134 and the Rev/plate (Salmonella TA98; TA98 +S9, Test 2, 40 µg/plate, zero-dose 43/41/30) was 276/244. For the same compound, the Rev/plate (Salmonella TA98; TA98 +S9, Test 2, 80 µg/plate, zero-dose 43/41/30) was 381/323, the Rev/plate (Salmonella TA98; TA98 +S9, Test 3, 10 µg/plate, zero-dose 49/50/50) was 143/142 and the Rev/plate (Salmonella TA98; TA98 +S9, Test 3, 20 µg/plate, zero-dose 49/50/50) was 193/190. For the same compound, the Rev/plate (Salmonella TA98; TA98 +S9, Test 3, 40 µg/plate, zero-dose 49/50/50) was 315/359, the Rev/plate (Salmonella TA98; TA98 +S9, Test 3, 80 µg/plate, zero-dose 49/50/50) was 448/459 and the “Mutagenic potency, Revertants/µg ± S.E., TA98” value (Salmonella TA98; plate-incorporation, +S9) was 5.6 ± 0.8 rev/µg. The “Mutagenicity call TA98” value (Salmonella TA98; plate-incorporation, +S9) was “(+) (Called mutagenic (+) based on showing reproducible, dose-related increases in rev/plate that reached or exceeded 2-fold relative to zero-dose controls)”, the “Abasic sites/10^5 nucleotides ± S.E” value ([1]; TA100, 2 µg/ml) was 2.9 ± 0.23 sites/10^5 nucleotides and the “Abasic sites/10^5 nucleotides ± S.E” value ([1]; TA100, 5 µg/ml) was 4.7 ± 0.25 sites/10^5 nucleotides. The “Stable adducts/10^8 nucleotides ± S.E” value ([2]; TA100, 2 µg/ml) was 0.170 ± 0.045 adducts/10^8 nucleotides, the “Stable adducts/10^8 nucleotides ± S.E” value ([2]; TA100, 5 µg/ml) was 0.750 ± 0.045 adducts/10^8 nucleotides and the Rev/plate (Salmonella TA100; TA100 +S9, Test 1, 2 µg/plate, zero-dose 99/110/110) was 326 rev/plate. For the same compound, the Rev/plate (Salmonella TA100; TA100 +S9, Test 1, 5 µg/plate, zero-dose 99/110/110) was 554 rev/plate, the Rev/plate (Salmonella TA100; TA100 +S9, Test 1, 10 µg/plate, zero-dose 99/110/110) was 755 rev/plate and the Rev/plate (Salmonella TA100; TA100 +S9, Test 1, 20 µg/plate, zero-dose 99/110/110) was 995 rev/plate. The Rev/plate (Salmonella TA100; TA100 +S9, Test 1, 40 µg/plate, zero-dose 99/110/110) was 992 rev/plate, the Rev/plate (Salmonella TA100; TA100 +S9, Test 1, 80 µg/plate, zero-dose 99/110/110) was 847 rev/plate and the Rev/plate (Salmonella TA100; TA100 +S9, Test 2, 0.5 µg/plate, zero-dose 84/78/80) was 80/94. The Rev/plate (Salmonella TA100; TA100 +S9, Test 2, 1 µg/plate, zero-dose 84/78/80) was 140/116, the Rev/plate (Salmonella TA100; TA100 +S9, Test 2, 2.5 µg/plate, zero-dose 84/78/80) was 268/224 and the Rev/plate (Salmonella TA100; TA100 +S9, Test 2, 5 µg/plate, zero-dose 84/78/80) was 352/315. For the same compound, the Rev/plate (Salmonella TA100; TA100 +S9, Test 3, 0.5 µg/plate, zero-dose 127/118/125) was 147/151, the Rev/plate (Salmonella TA100; TA100 +S9, Test 3, 1 µg/plate, zero-dose 127/118/125) was 178/187 and the Rev/plate (Salmonella TA100; TA100 +S9, Test 3, 2.5 µg/plate, zero-dose 127/118/125) was 347/430. For the same compound, the Rev/plate (Salmonella TA100; TA100 +S9, Test 3, 5 µg/plate, zero-dose 127/118/125) was 545/614, the “Mutagenic potency, Revertants/µg ± S.E., TA100” value (Salmonella TA100; plate-incorporation, +S9) was 80.0 ± 13.2 rev/µg and the “Mutagenicity call TA100” value (Salmonella TA100; plate-incorporation, +S9) was “(+) (Called mutagenic (+) based on showing reproducible, dose-related increases in rev/plate that reached or exceeded 2-fold relative to zero-dose controls)”. For the same compound, the Rev/plate (Salmonella TA104; TA104 +S9, Test 2, 0.5 µg/plate, zero-dose 276/260/270) was 486/465, the Rev/plate (Salmonella TA104; TA104 +S9, Test 2, 1 µg/plate, zero-dose 276/260/270) was 213/673 and the Rev/plate (Salmonella TA104; TA104 +S9, Test 2, 2.5 µg/plate, zero-dose 276/260/270) was 1311/1300. The Rev/plate (Salmonella TA104; TA104 +S9, Test 2, 5 µg/plate, zero-dose 276/260/270) was 1723/1755, the Rev/plate (Salmonella TA104; TA104 +S9, Test 3, 0.5 µg/plate, zero-dose 402/395/336) was 566/525 and the Rev/plate (Salmonella TA104; TA104 +S9, Test 3, 1 µg/plate, zero-dose 402/395/336) was 754/785. For the same compound, the Rev/plate (Salmonella TA104; TA104 +S9, Test 3, 2.5 µg/plate, zero-dose 402/395/336) was 1235/1287, the Rev/plate (Salmonella TA104; TA104 +S9, Test 3, 5 µg/plate, zero-dose 402/395/336) was 1508/1620 and the “Mutagenic potency, Revertants/µg ± S.E., TA104” value (Salmonella TA104; plate-incorporation, +S9) was 369 ± 28 rev/µg. For the same compound, the “Mutagenicity call TA104” value (Salmonella TA104; plate-incorporation, +S9) was “(+) (Called mutagenic (+) based on showing reproducible, dose-related increases in rev/plate that reached or exceeded 2-fold relative to zero-dose controls)”.
